One assay concerns the target T1, Recombinant IDO1 (Homo sapiens, UniProt P14902).
T1 construct: His tag (N); made in house; host or cells: E. coli
The assay can be described thus: IDO1 enzymatic assay. The class given is biochemical. The settings on record: 50 nM IDO1, 1.3 mM D-tryptophan, read-out: Enzyme IC50 (nM) IDO1. The protocol: Recombinant IDO1 was overexpressed and purified from E. coli cells with an N-terminal His tag. IDO1 enzymatic assay was carried out using a methodology similar to described in the literature (J. Biol. Chem. (1980), 255, 1339-1345.). The reaction mixture contains 50 nM IDO1, 1.3 mM D-tryptophan, 5 mM L-ascorbic acid, 6.25 μM methylene Blue, 0.4 mg/mL catalase and compound (or DMSO) in a buffer containing 50 mM potassium phosphate pH 7.5 and 0.1% BSA. After incubation at 24° C. for 1.5 hours, absorbance of the reaction mixture was continuously read at 321 nm to monitor the formation of N′-formylkynurenine by a FULOstar OMEGA plate reader (BMG LABTECH) for 1 hour. The enzymatic activity was determined by measuring the slope of the linear absorbance increase as a function of time. The IC50s are calculated based on remaining enzyme activity in the presence of increasing concentrations of compounds.

Assay [1] concerns the target T2, cellular IDO1 in HeLa cells (Homo sapiens, UniProt P14902).
T2 construct: endogenous in cells; host or cells: HeLa cells (American Type Tissue Culture Collection), induced with human recombinant IFN-γ
The assay can be described thus: HeLa cell-based IDO1 Kyn (kynurenine) production assay. The settings on record: IFN-γ 100 ng/mL, 48 hours. As to the method: HeLa Cell-Based IDO1 Kyn (Kynurenine) Production Assay:
The inhibitory activity of IDO1 inhibitors is determined by using a colorimetric reaction to measure Kyn generated from L-Trp (L-Tryptophon) oxidation by cellular IDO1 in HeLa cells after induction of IDO1 by IFN-γ.
Hela cells were obtained from the American Type Tissue Culture Collection and recovered in 10% FBS-containing phenol red-free DMEM medium supplemented with 0.4 mM L-Trp. Cells were plated onto a 96-well plate (100 μl/well) at 8000 cells per well. Human recombinant IFN-γ (8901SC, CST) was added to cells (final concentration 100 ng/mL) to stimulate endogenous IDO1. Compounds at different concentrations diluted in dimethylsulfoxide (DMSO) were added simultaneously with IFN-γ. Cells were kept at 37° C. in a humidified incubator supplied with 5% CO2. After 48 hours of incubation, 100 μl supernatant from each well was removed to a new plate. The protein in the medium was precipitated with the addition of 8 μl 6N trichloroacetic acid. The plate was incubated at 60° C. for 45 min and then centrifugation at 2500 rpm for 10 min to remove sediments. 80 μl supernatants were carefully removed to a new clean plate and added with an equal volume of 2% 4-(Dimethylamino) benzaldehyde (D2004, sigma) dissolved in glacial acetic acid. The absorbance at 480 nm wavelength derived from Kyn was measured using a FULOstar OMEGA plate reader (BMG LABTECH). The IC50 for each compound was derived from fitting the dose-response data to the four-parameter logistic model by using Graphpad Prism software.

Setting [2] is: Table 1, 5-substituted imidazo[1,5-a]pyridines.
Where [3] appears, read: Table 2, 8-substituted imidazo[1,5-a]pyridines.

By IC50 is commonly meant the concentration at which inhibition is half-maximal. In general, EC50 refers to the concentration giving half of the maximal effect. A higher EC50 goes with a less potent agent.

Where a name gives a salt, the structure may show the parent alone. Read-outs that look alike come from different tables or passages of the source.

T2 sequence (P14902 whole entry): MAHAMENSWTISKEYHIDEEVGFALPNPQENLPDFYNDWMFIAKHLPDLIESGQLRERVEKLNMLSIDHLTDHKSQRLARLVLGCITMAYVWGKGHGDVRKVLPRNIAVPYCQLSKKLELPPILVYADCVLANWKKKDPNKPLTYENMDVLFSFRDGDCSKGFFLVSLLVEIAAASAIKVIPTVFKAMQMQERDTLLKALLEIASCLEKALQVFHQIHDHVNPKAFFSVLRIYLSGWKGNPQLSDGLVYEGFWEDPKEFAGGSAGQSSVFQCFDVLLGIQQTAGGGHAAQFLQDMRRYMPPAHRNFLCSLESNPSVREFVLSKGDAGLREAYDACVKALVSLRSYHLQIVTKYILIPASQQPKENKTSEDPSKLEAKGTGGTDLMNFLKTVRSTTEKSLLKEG
T1 sequence (P14902 whole entry): as above

As to “1-(7-bromo-8-chloroimidazo[1,5-a]pyridin-5-yl)-2-cyclohexylethan-1-ol [Example A147]”, the IC50 at Recombinant IDO1 (setting [2]) stood at 420 nM. For the same compound, the 50% effective concentration (EC50) in assay [1] (setting [2]) amounted to 2790 nM.

For `OC(c1c(C2CC2)ccn2cncc12)C1CCC(c2ccccc2)CC1` (mixture of isomers) [Example B143, (7-cyclopropylimidazo[1,5-a]pyridin-8-yl)(4-phenylcyclohexyl)methanol], at Recombinant IDO1 (setting [3]), the concentration for half-maximal inhibition (IC50) is 100 nM. In assay [1] (setting [3]), this compound had an EC50 of 149 nM.

Regarding `OC1CCCC(C(O)c2c(C3CC3)ccc3cncn23)C1` (racemic) [Example A164a, 3-((6-Cyclopropylimidazo[1,5-a]pyridin-5-yl)(hydroxy)methyl)cyclohexan-1-ol], at Recombinant IDO1 (setting [2]), the half-inhibitory concentration (IC50) turned out to be 71 nM. The same compound came in with an EC50 in assay [1] (setting [2]) of 598 nM.

On to `OC1CCCC(C(O)c2c(C3CC3)ccc3cncn23)C1` (racemic) [Example A164c, 3-((6-Cyclopropylimidazo[1,5-a]pyridin-5-yl)(hydroxy)methyl)cyclohexan-1-ol], for which the IC50 on Recombinant IDO1 (setting [2]) came to 54 nM. In assay [1] (setting [2]), this compound showed an EC50 of 570 nM.

For the compound `OC(c1c([C@H]2C[C@H]2F)ccn2cncc12)C1CCCCC1` (mixture of isomers) [Example B126b, cyclohexyl(7-(cis-2-fluorocyclopropyl)imidazo [1,5-a]pyridin-8-yl)methanol], the IC50 on Recombinant IDO1 (setting [3]) came out at 340 nM. In addition, the EC50 in assay [1] (setting [3]) was found to be 676 nM.

On to `OC(CC1CCCCC1)c1c([C@H]2C[C@H]2F)ccn2cncc12` (mixture of isomers) [Example B127b, 2-Cyclohexyl-1-(7-(cis-2-fluorocyclopropyl)imidazo[1,5-a]pyridin-8-yl)ethan-1-ol], for which the half-maximal inhibitory concentration (IC50) on Recombinant IDO1 (setting [3]) came to 93 nM. In addition, a half-maximal effect in assay [1] (setting [3]) (EC50) was put at 1130 nM.

For `OC(c1c([C@H]2C[C@@H]2F)ccn2cncc12)C1CCCCC1` (mixture of isomers) [Example B128a, Cyclohexyl(7-((trans)-2-fluorocyclopropyl)imidazo[1,5-a]pyridin-8-yl)methanol], on Recombinant IDO1 (setting [3]), the 50% inhibitory concentration (IC50) stood at 100 nM. This compound yielded a concentration for a half-maximal effect (EC50) in assay [1] (setting [3]) of 184 nM.

As for `OC(c1c([C@H]2C[C@H]2F)ccn2cncc12)C1CCCCC1` (relative stereo) [Example B126a, cyclohexyl(7-(cis-2-fluorocyclopropyl)imidazo [1,5-a]pyridin-8-yl)methanol], the half-maximal inhibitory concentration (IC50) at Recombinant IDO1 (setting [3]) was 340 nM. The compound further returned a concentration giving a half-maximal response (EC50) in assay [1] (setting [3]) of 942 nM.

With `OC(CC1CCCCC1)c1c([C@H]2C[C@H]2F)ccn2cncc12` (relative stereo) [Example B127a, 2-Cyclohexyl-1-(7-(cis-2-fluorocyclopropyl)imidazo[1,5-a]pyridin-8-yl)ethan-1-ol], on Recombinant IDO1 (setting [3]), the IC50 was determined as 88 nM. In assay [1] (setting [3]), the EC50 is 595 nM.

As to `OC(c1cccc2cncn12)C1CCCCC1` (single isomer, unassigned) [Example A001b], at Recombinant IDO1 (setting [2]), the IC50 was found to be 11000 nM.

For the compound `OC1CCC(C(O)c2c(C3CC3)ccc3cncn23)CC1` (single isomer, unassigned) [Example A142b], on Recombinant IDO1 (setting [2]), the concentration for half-maximal inhibition (IC50) came to 31 nM. Also, the 50% effective concentration (EC50) in assay [1] (setting [2]) stood at 312 nM.

Regarding `OC1CCC([C@@H](O)c2c(C3CC3)ccc3cncn23)CC1` (single isomer, unassigned) [Example A142c], the IC50 at Recombinant IDO1 (setting [2]) was determined as 2000 nM. The compound also registered an EC50 in assay [1] (setting [2]) above 10000 nM.

On to `OC1CCC([C@@H](O)c2c(C3CC3)ccc3cncn23)CC1` (single isomer, unassigned) [Example A142d], for which, at Recombinant IDO1 (setting [2]), the IC50 is 9200 nM. The compound further gave a concentration for a half-maximal effect (EC50) in assay [1] (setting [2]) above 10000 nM.

For the compound `CC(C)c1ccn2cncc2c1C(O)C1CCCCC1` (single isomer, unassigned) [Example B106a], the IC50 on Recombinant IDO1 (setting [3]) is 23 nM. In assay [1] (setting [3]), a half-maximal response (EC50) required 129 nM.

Consider `CC(C)c1ccn2cncc2c1C(O)C1CCCCC1` (single isomer, unassigned) [Example B106b], for which the half-inhibitory concentration (IC50) on Recombinant IDO1 (setting [3]) is 1800 nM. For the same compound, the EC50 in assay [1] (setting [3]) was above 10000 nM.

For `OC(CC1CCCCC1)c1c(C2CC2)ccn2cncc12` (single isomer, unassigned) [Example B110a], the IC50 at Recombinant IDO1 (setting [3]) is 18 nM. In assay [1] (setting [3]), the EC50 turned out to be 215 nM.

Take `OC(CC1CCCCC1)c1c(C2CC2)ccn2cncc12` (single isomer, unassigned) [Example B110b]: the IC50 at Recombinant IDO1 (setting [3]) came to 4.9 nM. The EC50 in assay [1] (setting [3]) is above 10000 nM.

As for `OC(c1c(C2CC2)ccn2cncc12)[C@H]1CC[C@H](O)CC1` (single isomer, unassigned) [Example B119a, (trans)-4-((7-Cyclopropylimidazo[1,5-a]pyridin-8-yl)(hydroxy)methyl)cyclohexan-1-ol], the IC50 on Recombinant IDO1 (setting [3]) was determined as 280 nM. In assay [1] (setting [3]), the EC50 was found to be 1360 nM.

Consider `OC(c1cccc2cncn12)C1CCCC1` (centres unmarked) [Example A002, cyclopentyl(imidazo[1,5-a]pyridin-5-yl)methanol], for which the IC50 on Recombinant IDO1 (setting [2]) is 150 nM.

As for `OC(c1cccc2cncn12)C1CC1` (centres unmarked) [Example A003, cyclopropyl(imidazo[1,5-a]pyridin-5-yl)methanol], the half-inhibitory concentration (IC50) at Recombinant IDO1 (setting [2]) was 3800 nM.

For `C#CC(O)c1cccc2cncn12` (centres unmarked) [Example A006, 1-(imidazo[1,5-a]pyridin-5-yl)prop-2-yn-1-ol], the half-maximal inhibitory concentration (IC50) on Recombinant IDO1 (setting [2]) stood at 4600 nM.

For the compound `OC(c1ccccc1)c1cccc2cncn12` (centres unmarked) [Example A007, imidazo[1,5-a]pyridin-5-yl(phenyl)methanol], the IC50 on Recombinant IDO1 (setting [2]) was 5100 nM.

As to `OC(c1cccc2cncn12)C1CCOCC1` (centres unmarked) [Example A010, imidazo[1,5-a]pyridin-5-yl(tetrahydro-2H-pyran-4-yl)methanol], the half-maximal inhibitory concentration (IC50) at Recombinant IDO1 (setting [2]) is 3100 nM.

Take `CC(C)(C)OC(=O)N1CCC(C(=O)c2cccc3cncn23)CC1` [Example A011, Tert-butyl 4-(imidazo[1,5-a]pyridine-5-carbonyl)piperidine-1-carboxylate]: the half-inhibitory concentration (IC50) on Recombinant IDO1 (setting [2]) is above 100000 nM.

Turning to `CC(C)(C)OC(=O)N1CCC(C(O)c2cccc3cncn23)CC1` (centres unmarked) [Example A012, Tert-butyl 4-(hydroxy(imidazo[1,5-a]pyridin-5-yl)methyl)piperidine-1-carboxylate], the IC50 at Recombinant IDO1 (setting [2]) was 41000 nM.

Regarding `OC(c1cccc2cncn12)C1CCNCC1` (centres unmarked) [Example A013, Imidazo[1,5-a]pyridin-5-yl(piperidin-4-yl)methanol hydrochloride], the half-inhibitory concentration (IC50) on Recombinant IDO1 (setting [2]) was above 100000 nM.

Regarding `CN1CCC(C(O)c2cccc3cncn23)CC1` (centres unmarked) [Example A014, Imidazo[1,5-a]pyridin-5-yl(1-methylpiperidin-4-yl)methanol], the IC50 on Recombinant IDO1 (setting [2]) was above 100000 nM.

Turning to `CC(O)c1cccc2cncn12` (centres unmarked) [Example A017, 1-(imidazo[1,5-a]pyridin-5-yl)ethan-1-ol], at Recombinant IDO1 (setting [2]), the half-maximal inhibitory concentration (IC50) was 62000 nM.

Turning to `OC(c1cccc2cncn12)C1CCC1` (centres unmarked) [Example A018, cyclobutyl(imidazo[1,5-a]pyridin-5-yl)methanol], the IC50 on Recombinant IDO1 (setting [2]) is 1800 nM.

For the compound `OC(Cc1ccccc1)c1cccc2cncn12` (centres unmarked) [Example A019, 1-(imidazo[1,5-a]pyridin-5-yl)-2-phenylethan-1-ol], at Recombinant IDO1 (setting [2]), the concentration for half-maximal inhibition (IC50) turned out to be 21000 nM.

On to `OC(c1ccc(Br)c2cncn12)C1CCCCC1` (centres unmarked) [Example A023, (8-bromoimidazo[1,5-a]pyridin-5-yl)(cyclohexyl)methanol], for which, at Recombinant IDO1 (setting [2]), the concentration for half-maximal inhibition (IC50) was found to be 6500 nM.

On to `OC(c1ccc(Cl)c2cncn12)C1CCCCC1` (centres unmarked) [Example A024, (8-chloroimidazo[1,5-a]pyridin-5-yl)(cyclohexyl)methanol], for which the concentration for half-maximal inhibition (IC50) at Recombinant IDO1 (setting [2]) was 3300 nM.

As for `O=C(c1ccccc1)c1cccn2cncc12` [Example B003, Imidazo[1,5-a]pyridin-8-yl(phenyl)methanone], the IC50 at Recombinant IDO1 (setting [3]) is above 100000 nM.

Source of the values: US10280163B2 (BeiGene, Ltd., priority 2015, dated 2019).
